{
  "source": "PubChem BioAssay (NCI)",
  "assay_in_all_cases": "NCI-60 cell line screen, 48 h",
  "key": {"NCI/ADR-RES ovarian": {"test_system": "NCI/ADR-RES ovarian"}, "OVCAR-8 ovarian": {"test_system": "OVCAR-8 ovarian"}, "TK-10 renal": {"test_system": "TK-10 renal"}, "SNB-75 CNS": {"test_system": "SNB-75 CNS"}, "SK-MEL-5 melanoma": {"test_system": "SK-MEL-5 melanoma"}, "CAKI-1 renal": {"test_system": "CAKI-1 renal"}, "IGROV1 ovarian": {"test_system": "IGROV1 ovarian"}, "HS 578T breast": {"test_system": "HS 578T breast"}, "EKVX NSCLC": {"test_system": "EKVX NSCLC"}, "ACHN renal": {"test_system": "ACHN renal"}, "SK-MEL-28 melanoma": {"test_system": "SK-MEL-28 melanoma"}, "DU-145 prostate": {"test_system": "DU-145 prostate"}, "SN12C renal": {"test_system": "SN12C renal"}, "MDA-MB-435": {"test_system": "MDA-MB-435"}, "PC-3 prostate": {"test_system": "PC-3 prostate"}, "HT29 colon": {"test_system": "HT29 colon"}, "U251 CNS": {"test_system": "U251 CNS"}, "RXF 393 renal": {"test_system": "RXF 393 renal"}, "SF-295 CNS": {"test_system": "SF-295 CNS"}, "UO-31 renal": {"test_system": "UO-31 renal"}, "SK-OV-3 ovarian": {"test_system": "SK-OV-3 ovarian"}, "SF-268 CNS": {"test_system": "SF-268 CNS"}, "HL-60(TB) leukemia": {"test_system": "HL-60(TB) leukemia"}, "CCRF-CEM leukemia": {"test_system": "CCRF-CEM leukemia"}, "K-562 leukemia": {"test_system": "K-562 leukemia"}, "786-0 renal": {"test_system": "786-0 renal"}, "HCT-116 colon": {"test_system": "HCT-116 colon"}, "LOX IMVI melanoma": {"test_system": "LOX IMVI melanoma"}, "KM12 colon": {"test_system": "KM12 colon"}},
  "note": "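1) Cells in 96-well plates. 2) Compound, 48 h, 5 concentrations. 3) Linear interpolation between surrounding doses. 4) Unreached endpoint = highest concentration. GI50: concentration for 50% inhibition of growth. At the TGI there is no net growth.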",
  "data": [
    {"molecule": "CN(C)CCCNc1c2ccc(Cl)cc2nc2c1oc1ccc(Cl)cc12", "values": [
      {"measurement": "TGI", "setting": "NCI/ADR-RES ovarian", "value": 6.59, "unit": "µM"},
      {"measurement": "GI50", "setting": "OVCAR-8 ovarian", "value": 2.07, "unit": "µM"},
      {"measurement": "TGI", "setting": "OVCAR-8 ovarian", "value": 4.45, "unit": "µM"},
      {"measurement": "GI50", "setting": "TK-10 renal", "value": 13.1, "unit": "µM"},
      {"measurement": "TGI", "setting": "TK-10 renal", "value": 26, "unit": "µM"},
      {"measurement": "GI50", "setting": "SNB-75 CNS", "value": 5.25, "unit": "µM"},
      {"measurement": "TGI", "setting": "SNB-75 CNS", "value": 19.2, "unit": "µM"},
      {"measurement": "GI50", "setting": "SK-MEL-5 melanoma", "value": 16.3, "unit": "µM"},
      {"measurement": "TGI", "setting": "SK-MEL-5 melanoma", "value": 29.8, "unit": "µM"},
      {"measurement": "GI50", "setting": "CAKI-1 renal", "value": 1.49, "unit": "µM"},
      {"measurement": "TGI", "setting": "CAKI-1 renal", "value": 2.9, "unit": "µM"},
      {"measurement": "GI50", "setting": "IGROV1 ovarian", "value": 3.66, "unit": "µM"},
      {"measurement": "TGI", "setting": "IGROV1 ovarian", "value": 15.9, "unit": "µM"},
      {"measurement": "GI50", "setting": "HS 578T breast", "value": 8.82, "unit": "µM"},
      {"measurement": "TGI", "setting": "HS 578T breast", "value": 28.2, "unit": "µM"},
      {"measurement": "GI50", "setting": "EKVX NSCLC", "value": 4.76, "unit": "µM"},
      {"measurement": "TGI", "setting": "EKVX NSCLC", "value": 17.3, "unit": "µM"},
      {"measurement": "GI50", "setting": "ACHN renal", "value": 1.7, "unit": "µM"},
      {"measurement": "TGI", "setting": "ACHN renal", "value": 3.23, "unit": "µM"},
      {"measurement": "GI50", "setting": "SK-MEL-28 melanoma", "value": 14, "unit": "µM"},
      {"measurement": "TGI", "setting": "SK-MEL-28 melanoma", "value": 27.2, "unit": "µM"},
      {"measurement": "GI50", "setting": "DU-145 prostate", "value": 3.01, "unit": "µM"},
      {"measurement": "TGI", "setting": "DU-145 prostate", "value": 9.1, "unit": "µM"},
      {"measurement": "GI50", "setting": "SN12C renal", "value": 1.72, "unit": "µM"},
      {"measurement": "TGI", "setting": "SN12C renal", "value": 3.51, "unit": "µM"},
      {"measurement": "GI50", "setting": "MDA-MB-435", "value": 2.18, "unit": "µM"},
      {"measurement": "TGI", "setting": "MDA-MB-435", "value": 5.57, "unit": "µM"},
      {"measurement": "GI50", "setting": "PC-3 prostate", "value": 1.81, "unit": "µM"},
      {"measurement": "TGI", "setting": "PC-3 prostate", "value": 3.86, "unit": "µM"},
      {"measurement": "GI50", "setting": "HT29 colon", "value": 1.69, "unit": "µM"},
      {"measurement": "TGI", "setting": "HT29 colon", "value": 3.5, "unit": "µM"},
      {"measurement": "GI50", "setting": "U251 CNS", "value": 1.76, "unit": "µM"},
      {"measurement": "TGI", "setting": "U251 CNS", "value": 3.35, "unit": "µM"},
      {"measurement": "GI50", "setting": "RXF 393 renal", "value": 2.68, "unit": "µM"},
      {"measurement": "TGI", "setting": "RXF 393 renal", "value": 8.4, "unit": "µM"},
      {"measurement": "GI50", "setting": "SF-295 CNS", "value": 4.72, "unit": "µM"},
      {"measurement": "TGI", "setting": "SF-295 CNS", "value": 17.1, "unit": "µM"},
      {"measurement": "GI50", "setting": "UO-31 renal", "value": 4.13, "unit": "µM"},
      {"measurement": "TGI", "setting": "UO-31 renal", "value": 18.3, "unit": "µM"},
      {"measurement": "GI50", "setting": "SK-OV-3 ovarian", "value": 10.1, "unit": "µM"},
      {"measurement": "TGI", "setting": "SK-OV-3 ovarian", "value": 21.7, "unit": "µM"},
      {"measurement": "GI50", "setting": "SF-268 CNS", "value": 3.45, "unit": "µM"},
      {"measurement": "TGI", "setting": "SF-268 CNS", "value": 15.3, "unit": "µM"},
      {"measurement": "GI50", "setting": "HL-60(TB) leukemia", "value": 1.98, "unit": "µM"},
      {"measurement": "TGI", "setting": "HL-60(TB) leukemia", "value": 4.81, "unit": "µM"},
      {"measurement": "GI50", "setting": "CCRF-CEM leukemia", "value": 3.42, "unit": "µM"},
      {"measurement": "TGI", "setting": "CCRF-CEM leukemia", "value": 12.2, "unit": "µM"},
      {"measurement": "GI50", "setting": "K-562 leukemia", "value": 2.73, "unit": "µM"},
      {"measurement": "GI50", "setting": "786-0 renal", "value": 1.65, "unit": "µM"},
      {"measurement": "TGI", "setting": "786-0 renal", "value": 3.25, "unit": "µM"},
      {"measurement": "GI50", "setting": "HCT-116 colon", "value": 1.43, "unit": "µM"},
      {"measurement": "TGI", "setting": "HCT-116 colon", "value": 2.79, "unit": "µM"},
      {"measurement": "GI50", "setting": "LOX IMVI melanoma", "value": 1.89, "unit": "µM"},
      {"measurement": "TGI", "setting": "LOX IMVI melanoma", "value": 3.4, "unit": "µM"},
      {"measurement": "GI50", "setting": "KM12 colon", "value": 2.65, "unit": "µM"},
      {"measurement": "TGI", "setting": "KM12 colon", "value": 8.35, "unit": "µM"}
    ]}
  ]
}
